What was measured:
[1] = tested on: KRAS G12C mutant NCI-H358 cells; test: Cell proliferation inhibition experiment, 3D spheroid, CellTiter-Glo, NCI-H358; assay type: cell-based, human; conditions: Homo sapiens, NCI-H358, 120 h, NCI-H358 (KRAS G12C mutant) 3D spheroid, 5 days with compound, CellTiter-Glo; read-out: H358 IC50
Outline: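 CellTiter-Glo luminescence after 5 days' compound treatment (3.16-fold series, 0.1% DMSO) of overnight-formed spheroids in 2% FBS medium: H358 seeded at 800 cells/well in RPMI-1640, A549 at 400 cells/well in F-12K. IC50 derived by four-parameter fit of inhibition normalized to DMSO control and blank.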

[2] = tested on: phosphorylated ERK downstream of KRAS G12C in MIA PaCa2 cells; test: Cell p-ERK detection experiment (HTRF) in MIA PaCa2; assay type: cell-based, human; conditions: Homo sapiens, MIA PaCa-2, 2 h, MIA PaCa2 cells, 2 hours with compound, Advance ERK phospho-T202/Y204 HTRF kit; read-out: p-ERK IC50
Outline: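 Phospho-ERK (T202/Y204) measured by HTRF after 30 min lysis and 4 h antibody incubation in MIA PaCa2 (KRAS G12C) cells, seeded at 2.5E4 per well and treated 2 h with compounds in 3.16-fold steps, final DMSO 0.1%. IC50 from a four-parameter fit of percent inhibition relative to DMSO and blank wells.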

IC50 [1] | IC50 [2] | SMILES
8 nM | 106 nM | C=CC(=O)N1CCN2C(=O)c3c(N4C[C@@H](O)CC4(C)C)nc(-c4c(F)ccc(Cl)c4O)c(F)c3OC[C@H]2C1 (single isomer, unassigned) [Z341-1]
10 nM | 70 nM | C=CC(=O)N1CCN2C(=O)c3c(N4CCN(C)C(=O)[C@@H]4C)nc(-c4c(O)cccc4F)c(Cl)c3OC[C@H]2C1 [Z311-1, (6aR)-8-actyloyl-4-chloro-1-((S)-2,4-dimethyl-3-oxopiperazin-1-yl)-3-(2-fluoro-6-hydroxyphenyl)-6,6a,7,8,9,10-hexahydro-12H-pyrazino[2,1-c]pyrido[3,4-f][1,4]oxazepin-12-one]
5 nM | 62 nM | C=CC(=O)N1CCN2C(=O)c3c(N4CCN(C(C)=O)C(C)(C)C4)nc(-c4c(O)cccc4F)c(Cl)c3OC[C@H]2C1 [Z315, (6aR)-1-(4-acetyl-3,3-dimethylpiperazin-1-yl)-8-acryloyl-4-chloro-3-(2-fluoro-6-hydroxyphenyl)-6,6a,7,8,9,10-hexahydro-12H-pyrazino[2,1-c]pyrido[3,4-f][1,4]oxazepin-12-one]
7 nM | 151 nM | C=CC(=O)N1CCN2C(=O)c3c(N4C[C@@H](O)CC4(C)C)nc(-c4c(F)ccc(F)c4O)c(F)c3OC[C@H]2C1 (single isomer, unassigned) [Z449-1]
10.4 nM | 119 nM | C=CC(=O)N1CCN2C(=O)c3c(N4CCN(C)C[C@@H]4C)nc(-c4c(O)ccc(Cl)c4F)c(Cl)c3OC[C@H]2C1 [Z343, (6aR)-8-acryloyl-4-chloro-3-(3-chloro-2-fluoro-6-hydroxyphenyl)-1-((S)-2,4-dimethylpiperazin-1-yl)-6,6a,7,8,9,10-hexahydro-12H-pyrazino[2,1-c]pyrido[3,4-f][1,4]oxazepin-12-one]
10 nM | 65 nM | C=CC(=O)N1CCN2C(=O)c3c(Nc4c(C(C)C)ncnc4C(C)C)nc(-c4c(O)cccc4F)c(Cl)c3OC[C@H]2C1 [Z15, (6aR)-8-acryloyl-4-chloro-1-((4,6-diisopropylpyrimidin-5-yl)amino)-3-(2-fluoro-6-hydroxyphenyl)-6,6a,7,8,9,10-hexahydro-12H-pyrazino[2,1-c]pyrido[3,4-f][1,4]oxazepin-12-one]
11.8 nM | 61 nM | C=CC(=O)N1CCN2C(=O)c3c(N4Cc5nn(C)cc5[C@@H]4C)nc(-c4c(O)cccc4F)c(Cl)c3OC[C@H]2C1 (single isomer, unassigned) [Z345-2]
18 nM | 107 nM | C=CC(=O)N1CCN2C(=O)c3c(N4CCN(C)C5(CC5)C4)nc(-c4c(O)cccc4F)c(Cl)c3OC[C@H]2C1 [Z83, (6aR)-8-acryloyl-4-chloro-3-(2-fluoro-6-hydroxyphenyl)-1-(4-methyl-4,7-diazaspiro[2 .5]octan-7-yl)-6,6a,7,8,9,10-hexahydro-12H-pyrazino[2,1-c]pyrido[3,4-f][1,4]oxazepin-12 (6aH)-one]
2.1 nM | 11 nM | C=CC(=O)N1CCN2C(=O)c3c(N4CC[C@H](OC)[C@@H]4C)nc(-c4c(O)cccc4F)c(Cl)c3OC[C@H]2C1 [Z347-1, (6aR)-8-acryloyl-4-chloro-3-(2-fluoro-6-hydroxyphenyl)-1-((2S,3S)-3-methoxy-2-methylpyrrolidin-1-yl)-6,6a,7,8,9,10-hexahydro-12H-pyrazino[2,1-c]pyrido[3,4-f][1,4]oxazepin-12-one]
9.5 nM | 84 nM | C=CC(=O)N1CCN2C(=O)c3c(N4CCN(C)C[C@@H]4C)nc(-c4c(F)ccc(Cl)c4O)c(Cl)c3OC[C@H]2C1 [Z342, (6aR)-8-acryloyl-4-chloro-3-(3-chloro-6-fluoro-2-hydroxyphenyl)-1-((S)-2,4-dimethylpiperazin-1-yl)-6,6a,7,8,9,10-hexahydro-12H-pyrazino[2,1-c]pyrido[3,4-f][1,4]oxazepin-12-one]
3.4 nM | 42 nM | C=CC(=O)N1CCN2C(=O)c3c(N4C[C@@H](OC)CC4(C)C)nc(-c4c(O)cccc4F)c(F)c3OC[C@H]2C1 (single isomer, unassigned) [Z256a-1]
